Assay results taken from ChEMBL document CHEMBL5030537 (J Med Chem, 2021).
Values after ≈ are worked out from the molar mass of the structure shown.

What was measured:
[1] = target: T1, Tyrosine-protein kinase BTK (Homo sapiens, UniProt Q06187); test: Inhibition of Btk (unknown origin) assessed as inhibition of phosphorylation of FAM-labelled peptide substrate
[2] = target: T1, Tyrosine-protein kinase BTK; test: Inhibition of human Btk in human Raji cells assessed as PhosY223 measured after 30 mins by cellular HTRF assay; format: cell-based
[3] = Thermodynamic solubility of the compound at pH 1.2 in JP1 fluid; format: physicochemical; settings: read-out: Therm_solubility
[4] = Thermodynamic solubility of the compound at pH 6.8 in JP2 fluid; format: physicochemical; settings: read-out: Therm_solubility
[5] = Thermodynamic solubility of the compound at pH 6.8 in GCDC; format: physicochemical; settings: read-out: Therm_solubility
[6] = system: MDR1; test: Apparent permeability from apical to basolateral side in LLC-PK1-MDR1 cells; format: ADME, cell-based, Sus scrofa; settings: pig
[7] = system: MDR1; test: Efflux ratio of apparent permeability in LLC-PK1-MDR1 cells; settings: pig
[8] = Metabolic stability in mouse liver hepatocytes assessed as extraction ratio
[9] = Metabolic stability in Sprague-Dawley rat liver hepatocytes assessed as extraction ratio
[10] = Metabolic stability in Beagle dog liver hepatocytes assessed as extraction ratio
[11] = Metabolic stability in monkey liver hepatocytes assessed as extraction ratio; settings: rhesus monkey
[12] = Metabolic stability in human liver hepatocytes assessed as extraction ratio; settings: mouse
[13] = Plasma protein binding in Sprague-Dawley rat measured by rapid equilibrium dialysis method; format: ADME, cell-free; settings: read-out: PPB (converted)
[14] = Plasma protein binding in human measured by rapid equilibrium dialysis method; format: ADME, cell-free; settings: read-out: PPB (converted)
[15] = Clearance in Beagle dog at 1 mg/kg, iv; format: ADME, organism-based, Canis lupus familiaris; settings: in vivo
[16] = In vivo stability in Sprague-Dawley rat liver assessed as extraction ratio at 70 ml/kg
[17] = In vivo stability in Beagle dog liver assessed as extraction ratio at 35 ml/kg
[18] = Half life in Sprague-Dawley rat; format: ADME; settings: in vivo
[19] = Half life in Beagle dog; format: ADME, Canis lupus familiaris; settings: in vivo
[20] = In vivo inhibition of pBTK in collagen-induced arthritis rat model at 3-30 mg/kg after 12 hrs; format: functional
[21] = system: Rattus norvegicus; test: Antiarthritic activity against collagen-induced arthritis po dosed Lewis rat model assessed as inhibition of paw swelling measured after 22 days; format: organism-based; settings: 528 h, time 22 day
[22] = AUC in collagen-induced arthritis rat model at 3 mg/kg, po […] after 22 days; format: ADME, organism-based; parameters: dose 3 mg/kg, time 22 day; settings: in vivo, 528 h
[23] = target: Tyrosine-protein kinase Lck (Homo sapiens, UniProt P06239); test: Inhibition of Lck (unknown origin)
Sequence of Tyrosine-protein kinase Lck (P06239 whole entry): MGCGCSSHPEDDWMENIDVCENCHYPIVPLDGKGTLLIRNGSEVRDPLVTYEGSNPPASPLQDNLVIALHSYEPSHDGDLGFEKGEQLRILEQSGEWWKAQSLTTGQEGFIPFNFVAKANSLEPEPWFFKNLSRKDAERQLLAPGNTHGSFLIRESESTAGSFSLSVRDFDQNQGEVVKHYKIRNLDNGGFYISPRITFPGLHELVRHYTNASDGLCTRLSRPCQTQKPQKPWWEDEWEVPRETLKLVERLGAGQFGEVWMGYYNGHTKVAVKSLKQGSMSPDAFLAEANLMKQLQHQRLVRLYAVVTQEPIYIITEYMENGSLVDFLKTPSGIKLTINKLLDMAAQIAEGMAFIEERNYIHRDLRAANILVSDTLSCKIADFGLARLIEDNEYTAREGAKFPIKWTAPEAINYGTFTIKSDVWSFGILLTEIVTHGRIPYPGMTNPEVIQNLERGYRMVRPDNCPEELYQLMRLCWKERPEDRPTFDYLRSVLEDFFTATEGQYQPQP

[24] = target: hERG (KCNH2) (Homo sapiens, UniProt Q12809); test: Inhibition of hERG at 13 uM
Sequence of hERG (KCNH2) (Q12809 whole entry): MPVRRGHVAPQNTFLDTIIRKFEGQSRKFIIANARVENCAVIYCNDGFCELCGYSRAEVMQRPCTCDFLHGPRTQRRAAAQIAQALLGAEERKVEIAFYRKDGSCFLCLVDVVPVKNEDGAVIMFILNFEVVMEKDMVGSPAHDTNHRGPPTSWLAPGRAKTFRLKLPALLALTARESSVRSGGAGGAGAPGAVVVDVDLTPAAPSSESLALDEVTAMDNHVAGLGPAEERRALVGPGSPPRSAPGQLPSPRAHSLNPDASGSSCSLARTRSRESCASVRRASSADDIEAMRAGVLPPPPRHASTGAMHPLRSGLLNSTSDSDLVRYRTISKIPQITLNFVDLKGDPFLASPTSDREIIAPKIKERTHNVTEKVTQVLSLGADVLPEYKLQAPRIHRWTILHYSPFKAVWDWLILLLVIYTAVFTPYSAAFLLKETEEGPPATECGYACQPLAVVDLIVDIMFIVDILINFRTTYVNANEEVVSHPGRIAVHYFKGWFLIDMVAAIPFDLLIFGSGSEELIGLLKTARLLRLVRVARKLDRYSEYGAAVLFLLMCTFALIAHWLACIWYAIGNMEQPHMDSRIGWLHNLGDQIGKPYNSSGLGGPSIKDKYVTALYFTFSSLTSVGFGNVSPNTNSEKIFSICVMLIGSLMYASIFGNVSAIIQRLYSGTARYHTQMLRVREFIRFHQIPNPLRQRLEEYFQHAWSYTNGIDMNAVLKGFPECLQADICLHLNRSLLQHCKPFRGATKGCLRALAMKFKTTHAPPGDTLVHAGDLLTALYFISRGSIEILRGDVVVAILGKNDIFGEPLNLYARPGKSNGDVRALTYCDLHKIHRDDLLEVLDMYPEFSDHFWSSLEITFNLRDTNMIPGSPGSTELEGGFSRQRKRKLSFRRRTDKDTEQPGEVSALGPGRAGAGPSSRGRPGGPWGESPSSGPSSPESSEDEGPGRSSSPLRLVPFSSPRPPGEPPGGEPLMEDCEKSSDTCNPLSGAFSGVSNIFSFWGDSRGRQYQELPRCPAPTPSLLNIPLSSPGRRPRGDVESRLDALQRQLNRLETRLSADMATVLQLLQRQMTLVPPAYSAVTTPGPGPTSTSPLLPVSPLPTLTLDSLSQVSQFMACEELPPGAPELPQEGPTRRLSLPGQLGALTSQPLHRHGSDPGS

[25] = system: Salmonella typhimurium; test: Genotoxicity in Salmonella typhimurium TA98 by Ames test; format: toxicity, organism-based; settings: salmonella enterica subsp. enterica serovar typhimurium
[26] = system: Salmonella typhimurium; test: Genotoxicity in Salmonella typhimurium […] by Ames test; format: toxicity, organism-based; settings: salmonella enterica subsp. enterica serovar typhimurium
[27] = system: Salmonella typhimurium; test: Genotoxicity in Salmonella typhimurium TA1535 by Ames test; format: toxicity, organism-based; settings: salmonella enterica subsp. enterica serovar typhimurium
[28] = system: Salmonella typhimurium; test: Genotoxicity in Salmonella typhimurium TA1537 by Ames test; format: toxicity, organism-based; settings: salmonella enterica subsp. enterica serovar typhimurium
[29] = system: Salmonella typhimurium; test: Genotoxicity in Salmonella typhimurium WP2 uvrA in presence of S9 fraction by Ames test; format: toxicity, organism-based; settings: salmonella enterica subsp. enterica serovar typhimurium
[30] = system: Salmonella typhimurium; test: Genotoxicity in Salmonella typhimurium WP2 uvrA in absence of S9 fraction by Ames test; format: toxicity, organism-based; settings: salmonella enterica subsp. enterica serovar typhimurium
[31] = Toxicity in human peripheral blood lymphocytes in presence of S9 fraction by micronucleus test; format: subcellular, Lymphocyte
[32] = Toxicity in human peripheral blood lymphocytes in absence of S9 fraction by micronucleus test; format: cell-based; settings: lymphocyte
[33] = Oral bioavailability in Sprague-Dawley rat; format: ADME, organism-based; settings: in vivo
[34] = Oral bioavailability in Beagle dog; format: ADME, organism-based, Canis lupus familiaris; settings: in vivo
[35] = Stability in PBS buffer measured after 2 hrs; format: physicochemical
[36] = GSH reactivity in pH 7.4 PBS buffer assessed as intrinsic reactivity by measuring percent remaining measured after 2 hrs; format: physicochemical; settings: read-out: Stability
[37] = system: Rattus norvegicus; test: Antiarthritic activity against collagen-induced arthritis Lewis rat model assessed as inhibition of paw swelling treated po once daily for 21 days; format: functional, organism-based; settings: dose 0.3-3 mg/kg, time 21.0 day
[38] = system: PDE3; test: Inhibition of PDE3 (unknown origin) assessed as remaining activity; settings: human
[39] = target: PDE5 (Homo sapiens, UniProt O76074); test: Inhibition of PDE5 (unknown origin) assessed as remaining activity
[40] = target: PDE10A2 (Homo sapiens, UniProt Q9Y233); test: Inhibition of PDE10A2 (unknown origin) assessed as remaining activity
Sequence of PDE10A2 (Q9Y233 whole entry): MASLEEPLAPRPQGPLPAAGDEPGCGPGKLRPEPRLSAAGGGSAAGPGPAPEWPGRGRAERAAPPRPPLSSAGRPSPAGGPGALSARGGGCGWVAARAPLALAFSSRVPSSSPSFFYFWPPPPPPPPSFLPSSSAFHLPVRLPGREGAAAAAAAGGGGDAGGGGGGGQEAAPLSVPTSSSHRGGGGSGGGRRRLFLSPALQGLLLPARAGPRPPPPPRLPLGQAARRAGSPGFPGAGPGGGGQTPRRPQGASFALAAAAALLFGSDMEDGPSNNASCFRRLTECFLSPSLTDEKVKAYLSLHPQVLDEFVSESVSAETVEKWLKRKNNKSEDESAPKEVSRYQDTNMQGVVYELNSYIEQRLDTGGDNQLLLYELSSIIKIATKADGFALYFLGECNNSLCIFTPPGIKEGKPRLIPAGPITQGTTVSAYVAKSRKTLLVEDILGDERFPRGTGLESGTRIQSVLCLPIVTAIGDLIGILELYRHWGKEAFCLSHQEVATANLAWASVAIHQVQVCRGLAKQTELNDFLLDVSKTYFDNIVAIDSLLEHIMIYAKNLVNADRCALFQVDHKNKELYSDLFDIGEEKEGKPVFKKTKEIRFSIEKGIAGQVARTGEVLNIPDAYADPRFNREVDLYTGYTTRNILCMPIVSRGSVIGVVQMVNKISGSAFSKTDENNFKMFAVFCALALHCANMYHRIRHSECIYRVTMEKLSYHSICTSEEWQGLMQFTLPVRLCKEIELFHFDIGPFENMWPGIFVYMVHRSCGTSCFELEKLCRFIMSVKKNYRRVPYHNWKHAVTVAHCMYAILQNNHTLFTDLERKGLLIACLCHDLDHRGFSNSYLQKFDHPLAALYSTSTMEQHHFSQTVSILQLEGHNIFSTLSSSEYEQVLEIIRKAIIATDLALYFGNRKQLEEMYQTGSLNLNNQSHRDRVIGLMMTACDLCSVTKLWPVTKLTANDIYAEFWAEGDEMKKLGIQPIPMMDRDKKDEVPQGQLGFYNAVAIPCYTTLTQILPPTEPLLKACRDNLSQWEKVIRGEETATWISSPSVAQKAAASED

[41] = system: Rattus norvegicus; test: Antiarthritic activity against collagen-induced arthritis Lewis rat model assessed as change in paw volume at 0.1 mg/kg, po once daily for 22 days; format: functional; settings: time 22 day
[42] = system: Rattus norvegicus; test: Antiarthritic activity against collagen-induced arthritis Lewis rat model assessed as change in paw volume at 0.3 mg/kg, po once daily for 22 days; format: functional; settings: time 22 day
[43] = system: Rattus norvegicus; test: Antiarthritic activity against collagen-induced arthritis Lewis rat model assessed as change in paw volume at 1 mg/kg, po once daily for 22 days; format: functional; settings: time 22 day
[44] = system: Rattus norvegicus; test: Antiarthritic activity against collagen-induced arthritis Lewis rat model assessed as change in paw volume at 3 mg/kg, po once daily for 22 days; format: functional; settings: time 22 day
[45] = Toxicity in rat assessed as adverse effect; settings: in vivo
[46] = Toxicity in dog assessed as adverse effect; parameters: species or system Canis lupus familiaris; settings: in vivo
[47] = target: Proto-oncogene tyrosine-protein kinase Src (Homo sapiens, UniProt P12931); test: Inhibition of Src (unknown origin)
Sequence of Proto-oncogene tyrosine-protein kinase Src (P12931 2-536 limits assumed): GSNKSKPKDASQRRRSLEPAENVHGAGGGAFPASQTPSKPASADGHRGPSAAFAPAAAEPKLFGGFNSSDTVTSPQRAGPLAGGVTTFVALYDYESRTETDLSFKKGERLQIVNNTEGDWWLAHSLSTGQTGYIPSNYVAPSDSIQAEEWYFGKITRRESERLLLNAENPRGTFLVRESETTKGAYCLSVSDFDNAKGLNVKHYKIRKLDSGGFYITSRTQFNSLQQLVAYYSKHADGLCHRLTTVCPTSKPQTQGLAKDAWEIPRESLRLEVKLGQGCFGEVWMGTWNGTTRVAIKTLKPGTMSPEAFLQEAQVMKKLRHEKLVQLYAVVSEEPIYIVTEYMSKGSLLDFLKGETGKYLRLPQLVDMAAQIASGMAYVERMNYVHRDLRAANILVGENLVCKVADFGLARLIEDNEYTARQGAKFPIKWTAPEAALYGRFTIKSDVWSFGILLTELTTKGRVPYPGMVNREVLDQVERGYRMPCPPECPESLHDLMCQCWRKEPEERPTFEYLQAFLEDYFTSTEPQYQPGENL

T1 sequence (Q06187 whole entry): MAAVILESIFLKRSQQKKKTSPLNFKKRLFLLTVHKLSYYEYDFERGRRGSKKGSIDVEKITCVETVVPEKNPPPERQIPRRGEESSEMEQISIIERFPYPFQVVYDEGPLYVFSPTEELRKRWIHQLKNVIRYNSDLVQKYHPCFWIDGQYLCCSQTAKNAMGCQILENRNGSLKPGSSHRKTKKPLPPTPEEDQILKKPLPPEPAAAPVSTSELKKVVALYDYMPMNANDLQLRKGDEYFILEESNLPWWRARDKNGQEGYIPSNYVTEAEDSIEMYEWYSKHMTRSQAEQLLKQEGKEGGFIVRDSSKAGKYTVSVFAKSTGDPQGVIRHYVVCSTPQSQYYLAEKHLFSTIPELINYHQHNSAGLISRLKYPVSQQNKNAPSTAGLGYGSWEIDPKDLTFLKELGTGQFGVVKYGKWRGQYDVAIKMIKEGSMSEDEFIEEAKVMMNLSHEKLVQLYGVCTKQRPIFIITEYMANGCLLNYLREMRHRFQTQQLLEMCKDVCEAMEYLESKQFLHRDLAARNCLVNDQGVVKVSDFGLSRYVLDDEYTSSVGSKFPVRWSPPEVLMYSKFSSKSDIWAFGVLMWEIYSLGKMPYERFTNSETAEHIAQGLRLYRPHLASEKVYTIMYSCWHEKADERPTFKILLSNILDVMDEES

NC(=O)c1nnc2ccccc2c1N
IC50 [1]: 3160 nM

CC(C)Nc1nc(-c2n[nH]c(=O)[nH]2)cc2ccccc12
IC50 [1]: 20 nM | EC50 [2]: 158 nM

CC(C)Oc1nc(-c2n[nH]c(=O)[nH]2)cc2ccccc12
IC50 [1]: 10 nM | EC50 [2]: 100 nM

CCOc1nc(-c2n[nH]c(=O)[nH]2)cc2ccccc12
IC50 [1]: 50.1 nM

COc1nc2ccccc2cc1-c1n[nH]c(=O)[nH]1
IC50 [1]: 3160 nM

Cc1cc(OC(C)C)nc(-c2n[nH]c(=O)[nH]2)c1
IC50 [1]: 251 nM

O=c1[nH]nc(-c2ccccn2)[nH]1
IC50 [1]: 316000 nM

CCNc1nc(-c2n[nH]c(=O)[nH]2)cc2ccccc12
IC50 [1]: 100 nM | EC50 [2]: 794 nM

O=c1[nH]nc(-c2nc3ccccc3[nH]2)[nH]1
IC50 [1]: 10000 nM

CCOc1ncccc1-c1n[nH]c(=O)[nH]1
IC50 [1]: > 100000 nM

CCOc1cccc(-c2n[nH]c(=O)[nH]2)n1
IC50 [1]: 6310 nM

COc1ncccc1-c1n[nH]c(=O)[nH]1
IC50 [1]: 100000 nM

CCCOc1nc(-c2n[nH]c(=O)[nH]2)cc2ccccc12
IC50 [1]: 25.1 nM | EC50 [2]: 398 nM

CC(=O)N1CC[C@H](Oc2nc(-c3n[nH]c(=O)[nH]3)cc3ccccc23)C1
IC50 [1]: 31.6 nM

O=c1[nH]nc(-c2cccnc2)[nH]1
IC50 [1]: 126000 nM

CC(C)COc1cccc(-c2n[nH]c(=O)[nH]2)n1
IC50 [1]: 1580 nM

O=c1[nH]nc(-c2cc3ccccc3cn2)[nH]1
IC50 [1]: 5010 nM

C=CC(=O)N1CC[C@@H](Oc2nc(-c3n[nH]c(=O)[nH]3)cc3ccccc23)C1
IC50 [1]: 31.6 nM | EC50 [2]: 501 nM

COc1cccc(-c2n[nH]c(=O)[nH]2)n1
IC50 [1]: 31600 nM

COc1nc(-c2n[nH]c(=O)[nH]2)cc2ccccc12
IC50 [1]: 398 nM

Oc1n[nH]c(-c2ccccc2)n1
IC50 [1]: 501000 nM

C=CC(=O)N1CC[C@H](Oc2nc(-c3n[nH]c(=O)[nH]3)cc3ccccc23)C1 [TAK-020]
IC50 [1]: < 2 nM | EC50 [2]: 1.26 nM | solubility thermodynamic [3]: < 0.1 µg/mL | solubility thermodynamic [4]: < 1.1 µg/mL | solubility thermodynamic [5]: 6.8 µg/mL (≈ 19.4 µM) | Papp A→B [6]: 1.89 ×10⁻⁶ cm/s | efflux ratio [7]: 10.8 | hepatic extraction ratio [8]: 0.62 | hepatic extraction ratio [9]: 0.31 | hepatic extraction ratio [10]: 0.48 | hepatic extraction ratio [11]: 0.37 | hepatic extraction ratio [12]: 0.21 | fraction unbound [13]: 0.098 | fraction unbound [14]: 0.113 | clearance [15]: 28.5 mL/min/kg | hepatic extraction ratio [16]: > 0.9 | hepatic extraction ratio [17]: 0.81 | half-life [18]: 0.7 h | half-life [19]: 3 h | inhibition in vivo at 30 mg/kg [20]: > 50% | ED50 [21]: 0.17 mg/kg | AUC [22]: 4.2 ng·h/mL | IC50 [23]: 1000 nM | inhibition at 13 µM [24]: 18% | Activity [25]: Non-Toxic | Activity [26]: Non-Toxic | Activity [27]: Non-Toxic | Activity [28]: Non-Toxic | Activity [29]: Non-Toxic | Activity [30]: Non-Toxic | Activity [31]: Non-Toxic | Activity [32]: Non-Toxic | F [33]: 6% | bioavailability [34]: 6.5% | Stability [35]: Stable | remaining at 2 h [36]: 75% | inhibition [37]: Dose-Dependent Effect | Activity [38]: 96% | Activity [39]: 67% | Activity [40]: 59% | Activity [41]: 21% | Activity [42]: 75% | Activity [43]: 173% | Activity [44]: 240% | Activity [45]: Non-Toxic | Activity [46]: Non-Toxic | IC50 [47]: 631 nM
